In patent US11713335B2, “Aminocoumarin compounds and methods of their use” (President and Fellows of Harvard College, priority 2018, dated 2023):
Values after ≈ are worked out from the molar mass of the structure shown. Like-named read-outs stand apart in the source and are kept apart here.

Legend:
K. pneumoniae 700721 = experiment: Minimal inhibitory concentration, K. pneumoniae 700721; assay type: cell-based; conditions: 16 hour minimal inhibitory concentration at 37° C., read-out: MIC (μM) K. pneumoniae 700721
How it was run: (§1)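 Broth microdilution, 2-fold series from DMSO stock; inoculum = saturated overnight culture (LB; TSA for S. aureus) diluted 1:100 then 1:100. 37 °C, 16 h, no shaking. OD600 read-out; MIC = lowest conc. inhibiting growth (µM).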

A. baumannii 19606 = experiment: Minimal inhibitory concentration, A. baumannii 19606; assay type: cell-based; conditions: 16 hour minimal inhibitory concentration at 37° C., read-out: MIC (μM) A. baumannii 19606
How it was run: as §1

S. aureus RN4220 = experiment: Minimal inhibitory concentration, S. aureus RN4220; assay type: cell-based; conditions: 16 hour minimal inhibitory concentration at 37° C., read-out: MIC (μM) S. aureus RN4220
How it was run: as §1

S. aureus MW2 = experiment: Minimal inhibitory concentration, S. aureus MW2; assay type: cell-based; conditions: 16 hour minimal inhibitory concentration at 37° C., read-out: MIC (μM) S. aureus MW2 (MRSA)
How it was run: as §1

WT E. coli = experiment: Minimal inhibitory concentration in wild-type E. coli; assay type: cell-based, Escherichia coli; conditions: wild-type E. coli, 37° C., 16 hours, read-out: MIC (μM) in WT E. coli
How it was run: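 Broth microdilution: saturated LB overnight culture diluted 1:100 twice, compound serially two-fold diluted across the plate from DMSO stock. Static incubation 16 hours at 37° C, OD600 read; MIC taken as lowest concentration inhibiting growth.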

E. coli MC4100 = experiment: Minimal inhibitory concentration, E. coli MC4100; assay type: cell-based; conditions: 16 hour minimal inhibitory concentration at 37° C., read-out: MIC (μM) E. coli MC4100 ara+
How it was run: as §1

E. cloacae 13047 = experiment: Minimal inhibitory concentration, E. cloacae 13047; assay type: cell-based; conditions: 16 hour minimal inhibitory concentration at 37° C., read-out: MIC (μM) E. cloacae 13047
How it was run: as §1

E. coli 25922 = experiment: Minimal inhibitory concentration, E. coli 25922; assay type: cell-based; conditions: 16 hour minimal inhibitory concentration at 37° C., read-out: MIC (μM) E. coli 25922
How it was run: as §1

[1] = Acinetobacter baumannii, 19606, 16 h
[2] = Staphylococcus aureus, RN4220, 16 h
[3] = Staphylococcus aureus, MRSA, 16 h

SMILES	MIC (K. pneumoniae 700721; Klebsiella pneumoniae, 700721) [µM]	MIC (A. baumannii 19606; [1]) [µM]	MIC (S. aureus RN4220; [2]) [µM]	MIC (S. aureus MW2; [3]) [µM]	MIC (WT E. coli; Escherichia coli) [µM]	MIC (E. coli MC4100; Escherichia coli, MC4100, 16 h) [µM]	MIC (E. cloacae 13047; Enterobacter cloacae, 13047) [µM]	MIC (E. coli 25922; Escherichia coli, 25922, 16 h) [µM]	MIC (K. pneumoniae 700721) [µM]	MIC (A. baumannii 19606) [µM]	MIC (S. aureus RN4220) [µM]	MIC (S. aureus MW2) [µM]	MIC (WT E. coli) [µM]	MIC (E. coli MC4100) [µM]	MIC (E. cloacae 13047) [µM]	MIC (E. coli 25922) [µM]
CO[C@@H]1[C@@H](OC(N)=O)[C@@H](O)[C@H](Oc2ccc3c(O)c(NC(=O)c4ccc(C5CCCCC5)cc4)c(=O)oc3c2C)OC1(C)C [Compound 41]	> 100	> 50	20 (≈ 12.2 µg/mL)	20 (≈ 12.2 µg/mL)	> 300	> 200	> 100	> 200								
CO[C@@H]1[C@@H](OC(N)=O)[C@@H](O)[C@H](Oc2ccc3c(O)c(NC(=O)c4cccc(-c5ccc(Br)cc5)c4)c(=O)oc3c2C)OC1(C)C [Compound 68]	> 100	18 (≈ 12.3 µg/mL)	0.91 (≈ 0.622 µg/mL)	0.91 (≈ 0.622 µg/mL)	18 (≈ 12.3 µg/mL)	18 (≈ 12.3 µg/mL)	> 100	18 (≈ 12.3 µg/mL)								
COC1C(OC(N)=O)C(O)C(Oc2ccc3c(O)c(NC(=O)C4CCCC(C5CCCCC5)C4)c(=O)oc3c2C)OC1(C)C (mixture of isomers) [Compound 63]									>100	>50	10	5	300	>200	>100	>200
CO[C@@H]1[C@@H](OC(N)=O)[C@@H](O)[C@H](Oc2ccc3c(O)c(NC(=O)c4c[nH]c5ccccc45)c(=O)oc3c2C)OC1(C)C [Compound 17]	> 100	> 50	44 (≈ 25 µg/mL)	22 (≈ 12.5 µg/mL)	> 300	> 200	> 100	> 200								
CO[C@@H]1[C@@H](OC(N)=O)[C@@H](O)[C@H](Oc2ccc3c(O)c(NC(=O)c4cccc(-c5c(C)cccc5C)c4)c(=O)oc3c2C)OC1(C)C [Compound 21]	> 100	> 50	10 (≈ 6.33 µg/mL)	10 (≈ 6.33 µg/mL)	133 (≈ 84.1 µg/mL)	133 (≈ 84.1 µg/mL)	> 100	> 200								
CO[C@@H]1[C@@H](OC(N)=O)[C@@H](O)[C@H](Oc2ccc3c(O)c(NC(=O)c4cccc(-c5ccncc5)c4)c(=O)oc3c2C)OC1(C)C [Compound 32]	> 100	> 50	83 (≈ 50.3 µg/mL)	41 (≈ 24.8 µg/mL)	> 300	> 200	> 100	> 200								
CO[C@@H]1[C@@H](OC(N)=O)[C@@H](O)[C@H](Oc2ccc3c(O)c(NC(=O)C(c4ccccc4)c4ccccc4)c(=O)oc3c2C)OC1(C)C [Compound 5]	> 100	> 50	> 100	80 (≈ 49.5 µg/mL)	> 300	> 200	> 100	> 200								
CO[C@@H]1[C@@H](OC(N)=O)[C@@H](O)[C@H](Oc2ccc3c(O)c(NC(=O)c4cccc(-c5ccccc5N)c4)c(=O)oc3c2C)OC1(C)C [Compound 65]									>100	>50	81 (≈ 50.2 µg/mL)	40 (≈ 24.8 µg/mL)	59 (≈ 36.6 µg/mL)	59 (≈ 36.6 µg/mL)	>100	>200
